Like-named read-outs stand apart in the source and are kept apart here.
Assays:
[1] = system: Bacillus subtilis ATCC29212; assay: Antibacterial activity, growth inhibition in 96 well plates (OD600); type: cell-based
Description: (§1) The antibacterial activity of all isolated pure compounds (1–3, 9, and 10) was evaluated on Gram-positive pathogenic bacteria such as Bacillus subtilis (ATCC29212) and Staphylococcus aureus (ATCC9144 (and Gram-negative pathogenic bacteria such as Escherichia coli. (ATCC25922) and Pseudomonas aeruginosa (ATCC27853), as previously reported. The tests were carried out in 96 well flat polystyrene plates. First, 10 μL of each isolated compound (15 µM) was transferred to 80 μL of lysogeny broth followed by the addition of 10 μL of bacterial suspension at log phase, and then all inoculated plates were incubated overnight at 37 °C. […] The absorbance was observed after 20 h at OD600 in a Spectrostar Nano Microplate Reader (BMG LABTECH GmbH, Allmendgrun, Germany). The positive control was pathogenic bacteria plus distilled water, while the negative control was growth medium plus distilled water.

[2] = system: Escherichia coli ATCC25922; assay: as above; type: cell-based
Description: as §1

[3] = system: Pseudomonas aeruginosa ATCC27853; assay: as above; type: cell-based; details: NA: no activity; for inhibition at 15 µM: Pseudomonas aeruginosa; for Growth inhibition % Pseudomonas aeruginosa: at 15 µM, 15 µM
Description: as §1

[4] = system: Staphylococcus aureus ATCC9144; assay: as above; type: cell-based; details: NA: no activity; for inhibition at 15 µM: Staphylococcus aureus, ATCC9144, at 15 µM; for Growth inhibition % Staphylococcus aureus: at 15 µM, 15 µM
Description: as §1

S. aureus = assay: Antibiofilm activity, crystal violet staining; type: cell-based, Staphylococcus aureus; details: NA: no activity; for inhibition at 2 µM: Staphylococcus aureus; for Antibiofilm activity (% inhibition) S. aureus: at 2 µM, 2 µM
Description: (§2) The biofilm-inhibitory activities of the isolated pure compounds (1–3, 9, and 10) were measured using 96 well flat polystyrene plates against four clinical microbes comprising Gram-positive (Bacillus subtilis and Staphylococcus aureus) and Gram-negative (Escherichia coli and Pseudomonas aeruginosa) pathogenic bacteria, according to Antunes, et al. with some modifications. Briefly, each well was filled with 180 µL lysogeny broth (LB broth) and then inoculated with 10 µL of pathogenic bacteria followed by addition of 10 µL of sample (2 µM) along with control (without test sample). All inoculated plates were then incubated overnight at 37 °C and, after incubation, content in the wells was removed and wells were rinsed with 200 µL of phosphate-buffered saline (PBS) pH 7.2 to eliminate free-floating microbes and left to dry under sterilized laminar flow for 1 h. For staining, 200 µL/well of crystal violet (0.1%, w/v) was added, left for 1 h, and then excessive stain was removed and plates retained for drying. Further, dried plates were rinsed with 95% ethanol and optical density was measured at 570 nm using a Spectrostar Nano Microplate Reader (BMG LABTECH GmbH, Allmendgrun, Germany).

B. subtilis = assay: Antibiofilm activity, crystal violet staining; type: cell-based; details: Bacillus subtilis, NA: no activity
Description: as §2

E. coli = assay: Antibiofilm activity, crystal violet staining; type: cell-based; details: Escherichia coli, read-out: Antibiofilm activity (% inhibition) E. coli
Description: as §2

P. aeruginosa = assay: Antibiofilm activity, crystal violet staining; type: cell-based, Pseudomonas aeruginosa; details: for inhibition at 2 µM: Pseudomonas aeruginosa
Description: as §2

in vitro = details: human
Description: (§3) The cell lines were purchased from ATCC by (VACSERA), Cairo, Egypt. […] The cell lines were used to detect the inhibitory effects of isolated compounds on cell growth. Cell viability was determined via colorimetric assay (MTT), which is based on the transformation of the yellow tetrazolium bromide to a purple formazan by mitochondrial succinate dehydrogenase. […] Subsequently, the cells were mixed with different concentrations of the isolated compounds and incubated for a further 24 h, and then treated with 20 µL of MTT solution at a concentration of 5 mg/mL and incubated for 4 h. […] The relative cell viability as a percentage was calculated as A570 of treated samples/A570 of untreated sample × 100.

HCT116 = assay: Cytotoxic activity, MTT assay; details: Homo sapiens, HCT-116, 24 h, read-out: Cytotoxic activity (IC50) HCT116
Description: as §3

MCF7 = assay: Cytotoxic activity, MTT assay; details: Homo sapiens, MCF7, 24 h, read-out: Cytotoxic activity (IC50) MCF7
Description: as §3

HePG-2 = assay: Cytotoxic activity, MTT assay; type: cell-based; details: Homo sapiens, read-out: Cytotoxic activity (IC50) HePG-2
From the text: (§4) Doxorubicin was used as a positive control drug.

[5] = molecular target: T1, Staphylococcus DNA gyrase-B (Staphylococcus aureus, UniProt P0A0K8); assay: In vitro enzyme assay, DNA gyrase-B ATPase (Inspiralis kit); type: biochemical
T1 construct: purchased Inspiralis
Description: (§5) DNA gyrase (type II topoisomerase) and topoisomerase IV (ParE) add negative supercoils into DNA using ATP hydrolysis as a source of energy. They are considered crucial bacterial enzymes that are absent in eukaryotes. DNA-gyrase-B- and ParE-inhibitory activities were evaluated using the Inspiralis assay kit (Inspiralis®, London, UK) on streptavidin-coated 96 well microtiter plates (Thermo Scientific, Hamburg, Germany), according to the manufacturer’s protocol. The assay detects the ability of the isolated compounds to prevent the ATPase activity of both gyrase-B and ParE subunits. On the other hand, pyruvate kinase (PK) has been discovered to be an important hub protein in the interactome of MRSA [52]. The PK-inhibitory activity of the isolated compounds was assessed according to a previously reported method.

[6] = molecular target: Staphylococcus pyruvate kinase (PK) (Staphylococcus aureus, UniProt Q6GG09); assay: In vitro enzyme assay, pyruvate kinase inhibition; type: biochemical; details: IC50 ± SD
Description: as §5

[7] = system: four human cancer cell lines; assay: Cytotoxic activity, MTT assay, all four tested cell lines together; type: cell-based; details: range over WI38, HCT116, HePG-2, MCF7, read-out: IC50 values towards the tested cell lines (range)
From the text: as §4

[8] = ATCC29212, at 15 µM, NA: no activity, read-out: Growth inhibition % Bacillus subtilis
[9] = ATCC25922, at 15 µM, NA: no activity, read-out: Growth inhibition % Escherichia coli
[10] = ATCC27853, at 15 µM, read-out: Growth inhibition % Pseudomonas aeruginosa
[11] = at 2 µM, read-out: Antibiofilm activity (% inhibition) P. aeruginosa
[12] = IC50 ± SD, read-out: IC50 (µM) Gyr-B

T1 sequence (P0A0K8 whole entry): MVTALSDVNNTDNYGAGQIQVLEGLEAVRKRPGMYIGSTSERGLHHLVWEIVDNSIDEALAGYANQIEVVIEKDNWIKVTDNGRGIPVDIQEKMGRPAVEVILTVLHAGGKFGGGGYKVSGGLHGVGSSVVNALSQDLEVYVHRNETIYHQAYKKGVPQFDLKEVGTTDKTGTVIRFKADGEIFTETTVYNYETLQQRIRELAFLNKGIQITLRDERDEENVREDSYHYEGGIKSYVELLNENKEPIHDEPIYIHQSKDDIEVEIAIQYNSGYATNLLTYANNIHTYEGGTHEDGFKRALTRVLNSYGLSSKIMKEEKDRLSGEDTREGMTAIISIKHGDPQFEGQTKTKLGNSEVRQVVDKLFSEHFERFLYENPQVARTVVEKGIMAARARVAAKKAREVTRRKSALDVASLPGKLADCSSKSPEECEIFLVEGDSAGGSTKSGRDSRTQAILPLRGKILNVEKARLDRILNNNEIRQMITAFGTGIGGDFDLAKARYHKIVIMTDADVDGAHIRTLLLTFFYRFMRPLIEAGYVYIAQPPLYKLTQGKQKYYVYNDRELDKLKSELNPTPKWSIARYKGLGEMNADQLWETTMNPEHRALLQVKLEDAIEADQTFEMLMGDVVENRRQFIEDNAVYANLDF
T1 sequence (P20831 whole entry partner): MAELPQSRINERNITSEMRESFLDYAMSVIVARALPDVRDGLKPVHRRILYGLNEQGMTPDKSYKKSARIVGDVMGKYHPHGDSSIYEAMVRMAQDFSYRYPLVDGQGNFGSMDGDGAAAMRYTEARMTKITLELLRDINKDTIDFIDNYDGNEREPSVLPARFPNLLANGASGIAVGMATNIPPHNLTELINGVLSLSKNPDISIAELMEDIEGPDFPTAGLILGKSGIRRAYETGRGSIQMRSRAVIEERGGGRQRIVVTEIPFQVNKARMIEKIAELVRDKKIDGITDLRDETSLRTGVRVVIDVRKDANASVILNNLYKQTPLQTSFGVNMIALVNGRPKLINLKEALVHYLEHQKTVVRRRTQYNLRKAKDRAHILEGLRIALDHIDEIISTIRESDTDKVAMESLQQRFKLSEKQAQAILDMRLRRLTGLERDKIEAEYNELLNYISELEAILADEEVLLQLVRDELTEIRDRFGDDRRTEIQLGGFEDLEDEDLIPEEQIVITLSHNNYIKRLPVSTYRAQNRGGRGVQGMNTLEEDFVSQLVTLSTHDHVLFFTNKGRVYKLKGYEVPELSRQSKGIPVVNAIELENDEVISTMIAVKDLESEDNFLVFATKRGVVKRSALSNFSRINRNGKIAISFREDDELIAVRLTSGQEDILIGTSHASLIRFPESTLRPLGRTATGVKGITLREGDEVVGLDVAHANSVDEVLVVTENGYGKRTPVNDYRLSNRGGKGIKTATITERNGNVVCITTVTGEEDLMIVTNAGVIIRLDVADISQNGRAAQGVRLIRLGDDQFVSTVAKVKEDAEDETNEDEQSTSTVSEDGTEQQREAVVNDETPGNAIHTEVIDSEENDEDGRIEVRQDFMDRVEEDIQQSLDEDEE
Staphylococcus pyruvate kinase (PK), sequence (Q6GG09 whole entry): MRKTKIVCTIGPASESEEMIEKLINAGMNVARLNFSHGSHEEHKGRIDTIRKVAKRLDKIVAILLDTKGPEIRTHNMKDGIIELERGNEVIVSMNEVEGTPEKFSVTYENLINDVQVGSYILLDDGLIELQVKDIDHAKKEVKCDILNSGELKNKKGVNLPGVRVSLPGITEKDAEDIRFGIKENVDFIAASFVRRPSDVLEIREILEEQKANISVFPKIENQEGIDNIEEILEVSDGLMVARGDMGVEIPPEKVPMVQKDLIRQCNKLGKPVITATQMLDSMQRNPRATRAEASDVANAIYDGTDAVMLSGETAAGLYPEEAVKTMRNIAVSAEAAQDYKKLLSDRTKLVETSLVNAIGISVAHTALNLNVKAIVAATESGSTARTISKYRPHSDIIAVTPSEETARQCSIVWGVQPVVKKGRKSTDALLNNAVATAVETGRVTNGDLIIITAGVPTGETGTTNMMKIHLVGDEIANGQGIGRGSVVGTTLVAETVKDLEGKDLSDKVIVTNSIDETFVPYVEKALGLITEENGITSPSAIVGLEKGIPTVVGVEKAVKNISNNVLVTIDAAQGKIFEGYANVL

SMILES | inhibition at 15 µM [1, 8] [%] | inhibition at 15 µM [2, 9] [%] | inhibition at 15 µM [3, 10] [%] | inhibition at 15 µM [4] [%] | inhibition at 2 µM (S. aureus) [%] | inhibition at 2 µM (B. subtilis) [%] | inhibition at 2 µM (E. coli; at 2 µM) [%] | inhibition at 2 µM (P. aeruginosa; [11]) [%] | IC50 at 24 h (in vitro) [µM] | IC50 (HCT116) [µM] | IC50 (MCF7) [µM] | IC50 (HePG-2; HepG2, 24 h) [µM] | IC50 [6] [µM] | also measured
COc1ccc(C(N)=O)cc1 [Compound 10, p-anisamide] | 42.2 ± 1.9 | 19.3 ± 2.5 | 70 | 53.2 ± 1.2 | 61.2 ± 3.7 | 20.3 ± 1.1 | 57.5 ± 3.1 | 73 | > 100 | > 100 | > 100 | > 100 |  | Growth inhibition % Pseudomonas aeruginosa [3]: 70.23 ± 1.1%; Antibiofilm activity (% inhibition) P. aeruginosa (P. aeruginosa; at 2 µM): 73.52 ± 1.3%
COC(=O)c1cccc2nc3c(C(=O)O)cccc3nc12 [Compound 2, phenazine-1,6-dicarboxylic acid mono methyl ester] | 32.1 ± 1.3 | 11.2 ± 1.4 | 23.2 ± 2.2 | 69 | 75 | 18.6 ± 1.6 | 54.1 ± 2.5 | 22.3 ± 1.5 | 76.3 ± 3.9 | 60.8 ± 3.5 | 82.2 ± 4.4 | 76.1 ± 3.9 | 9.3 ± 0.03 | Growth inhibition % Staphylococcus aureus [4]: 68.87 ± 0.8%; Antibiofilm activity (% inhibition) S. aureus (S. aureus): 75.10 ± 2.4%; IC50 [5, 12]: 21.3 ± 2.36 µM
CNC(C)C1CCC(N)C(OC2C(N)CC(N)C(OC3OCC(C)(O)C(NC)C3O)C2O)O1 (centres unmarked) [Gentamicin, reference compound] | 97 ± 1.6 | 99 ± 0.6 | 99.7 ± 0.2 | 99.1 ± 0.7 |  |  |  |  |  |  |  |  |  | 
O=C(O)c1cccc2nc3ccccc3nc12 [Compound 3, phenazine-1-carboxylic acid] |  |  |  |  |  |  |  |  | 51.2 ± 3.2 | 91.3 ± 4.6 | > 100 | > 100 | 22.5 ± 0.04 | inhibition at 15 µM ([1]; ATCC29212, read-out: Growth inhibition % Bacillus subtilis): 1.69 ± 1.2%; inhibition at 15 µM ([2]; ATCC25922, read-out: Growth inhibition % Escherichia coli): 24.3 ± 1.8%; inhibition at 15 µM ([3]; ATCC27853, read-out: Growth inhibition % Pseudomonas aeruginosa, at 15 µM): 94%; Growth inhibition % Pseudomonas aeruginosa [3]: 94.17 ± 2.8%; inhibition at 2 µM (E. coli): 54.7 ± 1.4%; inhibition at 2 µM (P. aeruginosa; read-out: Antibiofilm activity (% inhibition) P. aeruginosa, at 2 µM): 94%; Antibiofilm activity (% inhibition) P. aeruginosa (P. aeruginosa; at 2 µM): 93.98 ± 2.2%; IC50 [5]: 27.7 ± 1.08 µM
COC(=O)c1cccc2nc3c(C(=O)OC)cccc3nc12 [Compound 1, dimethyl phenazine-1,6-dicarboxylate] | 19.6 ± 1.5 | 9.93 ± 1.3 | 23.4 ± 1.7 | 47 | 50 | 12.1 ± 3.2 | 36.7 ± 2.9 | 18.4 ± 0.9 | 63.2 ± 3.6 | 85 ± 3.9 | > 100 | 92.1 ± 4.7 | 7.2 ± 0.07 | Growth inhibition % Staphylococcus aureus [4]: 57.19 ± 1.2%; Antibiofilm activity (% inhibition) S. aureus (S. aureus): 50.26 ± 0.4%; IC50 [5, 12]: 19.2 ± 1.69 µM
CC(=O)Nc1ccccc1O [Compound 9, N-(2-hydroxyphenyl)-acetamide] |  |  | 4.74 ± 1.6 |  | 11.5 ± 2.9 | 4.91 ± 1.8 | 34.5 ± 2.6 | 7.39 ± 1.9 | 36.5 ± 2.3 | 14.6 ± 1.2 | 12.7 ± 1.1 | 10.2 ± 0.9 |  | IC50 [7]: 10 to 36 µM
COc1cccc2c1C(=O)c1c(O)c3c(c(O)c1C2=O)C[C@@](O)(C(=O)CO)C[C@@H]3O[C@H]1C[C@H](N)[C@H](O)[C@H](C)O1 [Doxorubicin, reference compound] |  |  |  |  |  |  |  |  |  |  |  |  |  | IC50 (HePG-2; HepG2, MTT, 24 h, table title prints "at 2 µM"): 4.5 ± 0.2 µM
